Laboratory results published in patent publication US7968554B2, “Pyrazolo[3,4-d]pyrimidine derivatives” (Hoffman-La Roche Inc., priority 2007, dated 2011).

Target: T1, c-Raf (Homo sapiens, UniProt P04049)
T1 construct: made in house; host or cells: baculovirus, High-5 (Hi5) insect cells, co-infected with FLAG-vSrc virus
Assay: c-Raf HTRF assay with 6H-MEK as substrate (dose response)
Format: biochemical
Settings: kinase enzyme inhibition, 6H-MEK substrate, read-out: cRaf IC50
Description: Kinase Enzyme Inhibition Assay (IC50)
c-Raf HTRF Assay With 6H-MEK as Substrate (Dose Response)
The assay utilizes 6H-MEK as the substrate. Upon c-Raf phosphorylation, phosphorylated 6H-MEK is detected with rabbit anti-phospho-MEK1/2, Eu-labeled anti-rabbit, and APC-labeled anti-6H antibodies.
Reagents and Instruments:
• Enzyme: cloned human c-Raf with EE-tag; phosphorylated (co-expressed with v-src-FLAG in baculovirus Hi5 cells), 0.2 mg/mL (2.74 μM assuming a molecular weight of 73 kD) stored at −15° C. • Substrate: WT full-length 6H-MEK, 4.94 mg/mL (154.4 μM assuming a MW of 32 kD) stored at −15° C. • Antibodies: Rabbit (α-P-(Ser 217/221)-MEK-1/2 Ab (from Cell Signaling, Cat. #9121B, Lot 14); Eu-(α-rabbit IgG (from Wallac, Cat. #AD0083, Lot 318663, 710 ug/mL, 4.4 μM); (α-6H-SureLight-APC (from Martek, Cat. #AD0059H, Lot E012AB01, 3.03 μM). • Reader: Envision from PerkinElmer, HTRF reading mode with 412 mirror • Assay Plate: Matrix all-black polypropylene plates (Cat. #4344) • Others: Weidman 384 polypropylene plates (REMP) for compound plate. Assay Procedure: • (1) Prepare Kinase Assay Buffer (KAB): 50 mM HEPES (HyClone) pH7, 10 mM MgCl2, 1 mM DTT, 0.1 mM […], and 0.3 mg/ml BSA. • (2) Prepare 6H-MEK (150 nM) in KAB. Add 12 μL/well to the assay plate. • (3) Prepare ATP (66 μM) in KAB. • (4) Dilute compounds to 2.4 mM and any positive controls to 480 μM in DMSO. Perform 10-point 3× dilution in DMSO. Withdraw 2.5 μL/well of DMSO solution and add to 27.5 μl/well ATP solution in (3). • (5) Mix, then add 6 μl/well of solution in (4) to the assay plate for a DMSO concentration of 2.1% during MEK phosphorylation. • (6) Prepare c-Raf (12 nM) in KAB. • (7) Add 6 μl/well of KAB in columns 1-2 and 6 μL/well of c-Raf in columns 3-24. • (8) Incubate at 37° C. for 30 min. • (9) Prepare rabbit (α-P-(Ser 217/221 )-MEK-1/2 Ab (1:240 from stock) in AB1: 50 mM HEPES pH7, 0.2 mg/mL BSA, and 43 mM EDTA. • (10) To stop reaction, add 6 μL/well of solution from (9) to the assay plate and incubate at 37° C. for 30 min. • (11) Prepare Eu-(α-rabbit IgG (9 nM) and (α-6H-SureLight-APC (120 nM) in AB2: 50 mM HEPES pH7 and 0.2 mg/mL BSA. • (12) Add 6 μl/well of solution from (11) to the assay plate. • (13) For determining the spectrum cross talk factor, prepare 2 samples following steps (1) to (10). For the blank sample, add 6 μl/well of AB2. For the cross talk factor sample, add 6 μL/well of Eu-anti rabbit IgG (9 nM). • (14) Incubate at room temperature for 1.5 hours. • (15) Read HTRF signals at 615 nm and 665 nm on the Envision. Normalize HTRF signals after spectrum cross-talk correction. Expression and Purification of c-Raf
N terminal EE-tagged c-Raf was expressed in High-5 cells. A five liter culture was co-transfected with virus for EE-c-Raf and FLAG-vSrc at a ratio of 1:2 and harvested after 48 hours. The cell pellet was lysed in TBS containing 5 mM EDTA, 50 mM KF, 20 mM Na pyrophosphate, 20 mM β-glycerolphosphate, 0.5 mM Na VO3, 1% NP-40 (w/v) and Complete Protease Tablets. The lysate was centrifuged at 20,000×g for 1 hour. The supernatant was incubated with 8 mL of anti-EE tag-Protein G Sepharose for 2 hours at 4° C. The resin was then washed with 30 volumes of the above buffer. The c-Raf protein was eluted by incubation with the above buffer containing 100 mg/mL of EE peptide for 1 hour at 4° C. The protein was concentrated using an Amicon Stir Cell with an YM10 membrane. The concentrated protein was dialyzed against TBS containing 1 mM DTT and 30% Glycerol. Protein concentration was determined by the BioRad DC method.
E. coli cells containing the plasmid for the expression of 6H-MEK1 (62-393) were grown in Rich Media and induced with 1 mM IPTG for 24 hours at 22° C. The cell pellet was resuspended in 50 mM potassium phosphate buffer, pH 8.0, 300 mM NaCl, 5 mM MgCl2, 10 mM CHAPS, 2 mM TCEP, and Complete Protease Inhibitor Tablets. Cells were disrupted by sonication. The lysate was cleared by centrifugation at 13,000×g for 45 minutes. […]

T1 sequence (P04049 whole entry): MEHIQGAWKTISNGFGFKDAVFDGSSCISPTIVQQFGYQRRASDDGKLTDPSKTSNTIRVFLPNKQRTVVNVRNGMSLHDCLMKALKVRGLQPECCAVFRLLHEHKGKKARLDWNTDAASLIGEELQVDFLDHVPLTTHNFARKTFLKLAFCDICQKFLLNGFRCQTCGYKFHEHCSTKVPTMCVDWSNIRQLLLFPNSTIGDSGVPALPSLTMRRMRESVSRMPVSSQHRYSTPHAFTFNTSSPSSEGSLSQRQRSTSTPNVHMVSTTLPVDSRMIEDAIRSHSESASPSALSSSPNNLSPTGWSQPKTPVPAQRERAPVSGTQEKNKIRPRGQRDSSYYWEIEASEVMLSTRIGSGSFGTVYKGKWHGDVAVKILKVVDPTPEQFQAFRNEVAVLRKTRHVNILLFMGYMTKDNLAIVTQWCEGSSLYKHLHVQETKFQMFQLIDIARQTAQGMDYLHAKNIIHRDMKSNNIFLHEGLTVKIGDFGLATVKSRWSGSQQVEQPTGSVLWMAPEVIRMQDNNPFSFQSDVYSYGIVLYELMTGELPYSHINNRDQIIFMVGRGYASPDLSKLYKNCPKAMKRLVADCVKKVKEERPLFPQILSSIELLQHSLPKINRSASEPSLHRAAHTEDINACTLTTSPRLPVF

IC50 [µM] | Compound
< 10 | Cn1nc(COc2cccc(OCc3ccccc3)c2)c2c(N)ncnc21 [Example 7, 3-(3-Benzyloxy-phenoxymethyl)-1-methyl-1H-pyrazolo[3,4-d]pyrimidin-4-ylamine]
< 10 | Cc1ccc(NC(=O)c2ccc(NCCO)c(Cl)c2)cc1OCc1nn(C)c2ncnc(N)c12 [Example 9, N-[3-(4-Amino-1-methyl-1H-pyrazolo[3,4-d]pyrimidin-3-ylmethoxy)-4-methyl-phenyl]-3-chloro-4-(2-hydroxy-ethylamino)-benzamide]
< 10 | Cc1ccc(NC(=O)c2cccc(Cl)c2)cc1OCc1nn(C)c2ncnc(N)c12 [Example 11, N-[3-(4-Amino-1-methyl-1H-pyrazolo[3,4-d]pyrimidin-3-ylmethoxy)-4-methyl-phenyl]-3-chloro-benzamide]
< 10 | Cc1noc(-c2ccc(C)c(OCc3nn(C)c4ncnc(N)c34)c2)n1 [Example 13, 4-Amino-1-1-methyl-3-[2-methyl-5-(3-methyl-[1,2,4]oxadiazol-5-yl)-phenoxymethyl]-1H-pyrazolo[3,4-d]pyrimidine]
< 10 | Cc1ccc(OCc2ccccc2)cc1OCc1nn(C)c2ncnc(N)c12 [Example 15, 3-(5-Benzyloxy-2-methyl-phenoxymethyl)-1-methyl-1H-pyrazolo[3,4-d]pyrimidin-4-ylamine]
< 10 | Cc1ccc(C(=O)Nc2ccc(Cl)cc2)cc1OCc1nn(C)c2ncnc(N)c12 [Example 17, 3-(4-Amino-1-methyl-1H-pyrazolo[3,4-d]pyrimidin-3-ylmethoxy)-N-(4-chloro-phenyl)-4-methyl-benzamide]
< 10 | Cc1ccc(OCc2ccc(Cl)cc2)cc1OCc1nn(C)c2ncnc(N)c12 [Example 19, 3-[5-(4-Chloro-benzyloxy)-2-methyl-phenoxymethyl]-1-methyl-1H-pyrazolo[3,4-d]pyrimidin-4-ylamine]
< 10 | Cc1nnc(-c2ccc(C)c(OCc3nn(C)c4ncnc(N)c34)c2)o1 [Example 21, 1-Methyl-3-[2-methyl-5-(5-methyl-[1,3,4]oxadiazol-2-yl)-phenoxymethyl]-1H-pyrazolo[3,4-d]pyrimidin-4-ylamine]
